# Values quoted from earlier work in patent US8858953B2, “Herbal composition for treating cancer” (priority 2011, dated 2014).
# Test system: Epidermal Growth Factor Receptor (EGFR) mutation lung cancer
# Conditions: lung cancer patients with EGFR mutation
smiles,measurement,value
C#Cc1cccc(Nc2ncnc3cc(OCCOC)c(OCCOC)cc23)c1 [Erlotinib],progression free survival,up to 9 months
